# Measured values from publication PMC8296573, “Synthesis and Biological Evaluation of Fingolimod Derivatives as Antibacterial Agents” (ACS Omega, 2021).
# Like-named read-outs stand apart in the source and are kept apart here.
# Assays:
# S. aureus ATCC 25923 [1] = assay: Antibacterial activity, pre-exposure (planktonic cells and biofilm formation); format: cell-based, Staphylococcus aureus; conditions: for Average inhibition %, biofilms biomass / Average inhibition %, biofilms viability / Average inhibition %, planktonic cells turbidity / Average inhibition %, planktonic cells viability: ± SD
# Procedure: (§1) The antimicrobial activity was assessed in a similar way for the initial screening and the dose–response evaluation against different bacterial strains. With the exception of the post-exposure experiment, the compounds were added to the wells along with the bacteria to test the ability of compounds to prevent bacterial growth and biofilm formation (pre-exposure). The compounds were diluted in DMSO and plated directly in 96-well plates before adding the bacterial culture, and plates were incubated for 18 h under aerobic conditions at 37 °C with shaking (220 rpm). The antibacterial activity of the compounds was assessed on planktonic cells and biofilms separately using two different measurements for each: optical density (turbidity) and resazurin reduction (viability) on planktonic cells and resazurin followed by a crystal violet staining assay (total biomass) on biofilms, as described in the following sections.
# (§2) The resazurin staining was performed according to the protocol previously optimized with a few modifications.[46] Briefly, the planktonic solution was first transferred into a new 96-well plate and the OD of the planktonic solution was measured using a Varioskan LUX Multimode microplate reader (Thermo Scientific, Vantaa, Finland). Then, 10 μL of a 400 μM resazurin (R7017, Sigma-Aldrich, St. Louis, MO) diluted in phosphate-buffered saline (PBS) (Thermo Fisher Scientific, MA) was added to the wells (for a final resazurin concentration of 20 μM). The plate was incubated in the dark with shaking (220 rpm) for about 3–10 min at room temperature with S. aureus and A. baumannii (until the bacteria controls turned pink) or for 20 min at 37 °C with P. aeruginosa. Fluorescence was measured at λex = 560 nm and λem = 590 nm using the top optics of the Varioskan LUX Multimode microplate reader. The planktonic plate was then discarded. The original challenge plate containing the biofilms was washed once with PBS, and 200 μL of a 20 μM resazurin solution was added to the wells. The plate was incubated in the dark at 37 °C with shaking (220 rpm) for 30 min with S. aureus, 60 min with A. baumannii, and 90 min with P. aeruginosa. Fluorescence was measured as described for the planktonic solution. The biofilms were next treated with crystal violet staining.
# (§3) After removing the resazurin solution from the plate, biofilms were fixed with ethanol 100% for 15 min at room temperature. Ethanol was then removed, and the biofilms were left to air-dry completely at RT. Crystal violet, diluted to 1:100 in deionized water from the 2.3% commercial solution (HT90132, Sigma-Aldrich, St. Louis, MO), was added to the wells and, after a 5 min incubation with the dye, the biofilms were washed twice with deionized water and left to air-dry for about 10 min. The dye was solubilized in ethanol 100% for 1 h, and absorbance was measured at 595 nm using a Multiskan Sky microplate spectrophotometer (Thermo Scientific, Vantaa, Finland).
# S. aureus ATCC 25923 [2] = assay: Antibacterial activity, post-exposure on preformed 18-h-old biofilms; format: cell-based, Staphylococcus aureus; conditions: ± SD
# Procedure: For the post-exposure experiment, bacteria were grown with no compounds in the same conditions for 18 h, after which the media was changed, and compounds were added on the preformed biofilms. The plates were then incubated in the same conditions for an additional 24 h before proceeding to the staining assays.
# as §2, §3
# A. baumannii NCTC 13423 = assay: Antibacterial activity, pre-exposure; format: cell-based, Acinetobacter baumannii; conditions: for Average inhibition %, biofilms biomass / Average inhibition %, biofilms viability / Average inhibition %, planktonic cells turbidity / Average inhibition %, planktonic cells viability: A. baumannii NCTC 13423, pre-exposure, ± SD
# Procedure: as §1, §2, §3
# P. aeruginosa ATCC 9027 = assay: Antibacterial activity, pre-exposure; format: cell-based, Pseudomonas aeruginosa; conditions: for Average inhibition %, biofilms biomass / Average inhibition %, biofilms viability / Average inhibition %, planktonic cells turbidity / Average inhibition %, planktonic cells viability: P. aeruginosa ATCC 9027, pre-exposure, ± SD
# Procedure: as §1, §2, §3
substance,measurement,setting,value
"2-Amino-2-(4-decylbenzyl)propane-1,3-diol [Compound 45]",MIC S. aureus ATCC 25923,"S. aureus ATCC 25923 [1]; lowest concentration with no visible growth (>90% inhibition of turbidity and viability of planktonic cells), 18 h",5 to 10 µM
same,MIC,"S. aureus ATCC 25923 [1]; lowest concentration with no visible growth (>90% inhibition of turbidity and viability of planktonic cells), 18 h, read-out: MIC S. aureus ATCC 25923",10 µM
same,"Average inhibition %, biofilms biomass","S. aureus ATCC 25923 [1]; pre-exposure, 5 µM",45.3 ± 46.5%
same,"Average inhibition %, biofilms viability","S. aureus ATCC 25923 [1]; pre-exposure, 5 µM",45.4 ± 46.1%
same,"Average inhibition %, planktonic cells turbidity","S. aureus ATCC 25923 [1]; pre-exposure, 5 µM",45.7 ± 46.9%
same,"Average inhibition %, planktonic cells viability","S. aureus ATCC 25923 [1]; pre-exposure, 5 µM",41.5 ± 50.3%
same,"Average inhibition %, biofilms biomass","S. aureus ATCC 25923 [1]; pre-exposure, 10 µM",92.5 ± 4.8%
same,"Average inhibition %, biofilms viability","S. aureus ATCC 25923 [1]; pre-exposure, 10 µM",98.9 ± 0.5%
same,"Average inhibition %, planktonic cells turbidity","S. aureus ATCC 25923 [1]; pre-exposure, 10 µM",99 ± 0.7%
same,"Average inhibition %, planktonic cells viability","S. aureus ATCC 25923 [1]; pre-exposure, 10 µM",99.8 ± 0.1%
same,"Average inhibition %, biofilms biomass","S. aureus ATCC 25923 [1]; pre-exposure, 15 µM",91.8 ± 4.7%
same,"Average inhibition %, biofilms viability","S. aureus ATCC 25923 [1]; pre-exposure, 15 µM",99.7 ± 0.1%
same,"Average inhibition %, planktonic cells turbidity","S. aureus ATCC 25923 [1]; pre-exposure, 15 µM",98.9 ± 0.7%
same,"Average inhibition %, planktonic cells viability","S. aureus ATCC 25923 [1]; pre-exposure, 15 µM",99.7 ± 0.1%
same,"Average inhibition %, biofilms biomass","S. aureus ATCC 25923 [1]; pre-exposure, 25 µM",91.8 ± 5.6%
same,"Average inhibition %, biofilms viability","S. aureus ATCC 25923 [1]; pre-exposure, 25 µM",99.7 ± 0%
same,"Average inhibition %, planktonic cells turbidity","S. aureus ATCC 25923 [1]; pre-exposure, 25 µM",98.6 ± 0.6%
same,"Average inhibition %, planktonic cells viability","S. aureus ATCC 25923 [1]; pre-exposure, 25 µM",99.8 ± 0.2%
same,MIC,"S. aureus ATCC 25923 [1]; pre-exposure, lowest value among replicates, read-out: MIC S. aureus ATCC 25923, for some replicates",5 µM
same,MIC (S. aureus),S. aureus ATCC 25923 [1]; supplementary molecular formula strings sheet,5 to 10 µM
same,"Average inhibition %, biofilms biomass",S. aureus ATCC 25923 [2]; 25 µM,36.9 ± 3%
same,"Average inhibition %, biofilms viability",S. aureus ATCC 25923 [2]; 25 µM,15.5 ± 10.9%
same,"Average inhibition %, planktonic cells turbidity",S. aureus ATCC 25923 [2]; 25 µM,9.2 ± 8.6%
same,"Average inhibition %, planktonic cells viability",S. aureus ATCC 25923 [2]; 25 µM,1 ± 1.7%
same,"Average inhibition %, biofilms biomass",S. aureus ATCC 25923 [2]; 50 µM,39.5 ± 9%
same,"Average inhibition %, biofilms viability",S. aureus ATCC 25923 [2]; 50 µM,25.2 ± 5.5%
same,"Average inhibition %, planktonic cells turbidity",S. aureus ATCC 25923 [2]; 50 µM,28.1 ± 16.3%
same,"Average inhibition %, planktonic cells viability",S. aureus ATCC 25923 [2]; 50 µM,22.5 ± 18.5%
same,"Average inhibition %, biofilms biomass",S. aureus ATCC 25923 [2]; 100 µM,51.3 ± 5.8%
same,"Average inhibition %, biofilms viability",S. aureus ATCC 25923 [2]; 100 µM,23.1 ± 10.2%
same,"Average inhibition %, planktonic cells turbidity",S. aureus ATCC 25923 [2]; 100 µM,45.7 ± 12.8%
same,"Average inhibition %, planktonic cells viability",S. aureus ATCC 25923 [2]; 100 µM,59.7 ± 16.4%
same,"Average inhibition %, biofilms biomass",S. aureus ATCC 25923 [2]; 200 µM,47.7 ± 12.7%
same,"Average inhibition %, biofilms viability",S. aureus ATCC 25923 [2]; 200 µM,17.1 ± 16.5%
same,"Average inhibition %, planktonic cells turbidity",S. aureus ATCC 25923 [2]; 200 µM,53.9 ± 18.7%
same,"Average inhibition %, planktonic cells viability",S. aureus ATCC 25923 [2]; 200 µM,70.7 ± 12.5%
same,"Average inhibition %, biofilms biomass",A. baumannii NCTC 13423; 10 µM,0 ± 0%
same,"Average inhibition %, biofilms viability",A. baumannii NCTC 13423; 10 µM,2.1 ± 3.6%
same,"Average inhibition %, planktonic cells turbidity",A. baumannii NCTC 13423; 10 µM,0 ± 0%
same,"Average inhibition %, planktonic cells viability",A. baumannii NCTC 13423; 10 µM,4.8 ± 2.9%
same,"Average inhibition %, biofilms biomass",A. baumannii NCTC 13423; 15 µM,1 ± 1.8%
same,"Average inhibition %, biofilms viability",A. baumannii NCTC 13423; 15 µM,0.5 ± 0.8%
same,"Average inhibition %, planktonic cells turbidity",A. baumannii NCTC 13423; 15 µM,0 ± 0%
same,"Average inhibition %, planktonic cells viability",A. baumannii NCTC 13423; 15 µM,2.8 ± 3.8%
same,"Average inhibition %, biofilms biomass",A. baumannii NCTC 13423; 25 µM,0 ± 0%
same,"Average inhibition %, biofilms viability",A. baumannii NCTC 13423; 25 µM,2.7 ± 4%
same,"Average inhibition %, planktonic cells turbidity",A. baumannii NCTC 13423; 25 µM,0 ± 0%
same,"Average inhibition %, planktonic cells viability",A. baumannii NCTC 13423; 25 µM,0 ± 0%
same,"Average inhibition %, biofilms biomass",A. baumannii NCTC 13423; 50 µM,0.7 ± 1.3%
same,"Average inhibition %, biofilms viability",A. baumannii NCTC 13423; 50 µM,6.5 ± 7.4%
same,"Average inhibition %, planktonic cells turbidity",A. baumannii NCTC 13423; 50 µM,0 ± 0%
same,"Average inhibition %, planktonic cells viability",A. baumannii NCTC 13423; 50 µM,0 ± 0%
same,MIC A. baumannii NCTC 13423,"A. baumannii NCTC 13423; pre-exposure, Inactive = no activity up to 50 μM, > = some inhibition but no MIC reached",Inactive
same,"Average inhibition %, biofilms biomass",P. aeruginosa ATCC 9027; 50 µM,5 ± 3.4%
same,"Average inhibition %, biofilms viability",P. aeruginosa ATCC 9027; 50 µM,8.1 ± 10.9%
same,"Average inhibition %, planktonic cells turbidity",P. aeruginosa ATCC 9027; 50 µM,31.3 ± 5.3%
same,"Average inhibition %, planktonic cells viability",P. aeruginosa ATCC 9027; 50 µM,24.4 ± 2.7%
same,"Average inhibition %, biofilms biomass",P. aeruginosa ATCC 9027; 100 µM,2.5 ± 4.4%
same,"Average inhibition %, biofilms viability",P. aeruginosa ATCC 9027; 100 µM,4 ± 6.6%
same,"Average inhibition %, planktonic cells turbidity",P. aeruginosa ATCC 9027; 100 µM,41.8 ± 6%
same,"Average inhibition %, planktonic cells viability",P. aeruginosa ATCC 9027; 100 µM,30 ± 7.6%
same,"Average inhibition %, biofilms biomass",P. aeruginosa ATCC 9027; 150 µM,1.6 ± 2.8%
same,"Average inhibition %, biofilms viability",P. aeruginosa ATCC 9027; 150 µM,1.9 ± 2.9%
same,"Average inhibition %, planktonic cells turbidity",P. aeruginosa ATCC 9027; 150 µM,39.3 ± 3.3%
same,"Average inhibition %, planktonic cells viability",P. aeruginosa ATCC 9027; 150 µM,36.5 ± 11.5%
same,"Average inhibition %, biofilms biomass",P. aeruginosa ATCC 9027; 200 µM,0 ± 0%
same,"Average inhibition %, biofilms viability",P. aeruginosa ATCC 9027; 200 µM,0 ± 0%
same,"Average inhibition %, planktonic cells turbidity",P. aeruginosa ATCC 9027; 200 µM,40.7 ± 6.2%
same,"Average inhibition %, planktonic cells viability",P. aeruginosa ATCC 9027; 200 µM,22.9 ± 11.2%
same,MIC P. aeruginosa ATCC 9027,"P. aeruginosa ATCC 9027; pre-exposure, Inactive = no activity up to 200 μM, > = some inhibition but no MIC reached",Inactive
